Test results taken from patent publication US20060094002A1 (priority 2002, published 2006).

tested on: Aspergillus (A. nidulans, A. niger, A. awamori); test: Effect of known antifungal drugs on [Ca2+]c in different Aspergillus species; type: cell-based; settings: FIGS. 22a, b
Excerpt: Procedure: • The fungus can be either transformed with the recombinant aequorin gene or can be injected with the active aequorin. • Then this fungus can be subjected to a range of the antifungal drugs, profiles of which have already been created. • Obtained profiles can be compared with the library of the fingerprints and this way the fungal species can be identified.

| Structure (SMILES) | [Ca^2+]c response in 3 different species of Aspergillus |
| --- | --- |
| C[C@@H]1[C@H](O)[C@@H](C)/C=C/C=C/C=C/C=C/C=C/C=C/C=C/[C@H](O[C@@H]2O[C@H](C)[C@@H](O)[C@H](N)[C@@H]2O)C[C@@H]2O[C@](O)(C[C@@H](O)C[C@@H](O)[C@H](O)CC[C@@H](O)C[C@@H](O)CC(=O)O[C@H]1C)C[C@H](O)[C@H]2C(=O)O [amphotericin B] | caused a different [Ca^2+]c response |
| Clc1ccccc1C(c1ccccc1)(c1ccccc1)n1ccnc1 [clotrimazole] | caused a different [Ca^2+]c response |
| CCCCC[C@@H](O)[C@H]1C(=O)O[C@H](C)[C@@H](O)/C=C/C=C/C=C/C=C/C=C(\C)[C@@H](O)C[C@H](O)C[C@H](O)C[C@H](O)C[C@H](O)C[C@H](O)C[C@@H]1O [filipin] | caused a different [Ca^2+]c response |
| CC(=O)N1CCN(c2ccc(OCC3COC(Cn4ccnc4)(c4ccc(Cl)cc4Cl)O3)cc2)CC1 (centres unmarked) [ketoconazole] | caused a different [Ca^2+]c response |
| C[C@@H]1[C@H](O)[C@@H](C)/C=C/C=C/CC/C=C/C=C/C=C/C=C/C(O[C@H]2O[C@H](C)[C@@H](O)[C@H](N)[C@@H]2O)CC2O[C@](O)(CC(O)C(O)CCC(O)CC(O)CC(O)CC(=O)O[C@H]1C)CC(O)C2C(=O)O (some centres unmarked) [nystatin] | caused a different [Ca^2+]c response |
